Measured values taken from PubChem BioAssay AID179 (DTP/NCI, 2004).
Where “and” joins values, the source holds several entries; their conditions need not be identical. Equal values may be shown once. Calls of active or inactive are those of the source.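 The calls were made as follows: active = compounds giving half or more protection of infected cells from virus-caused growth loss, again on retest; inactive = the rest.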

Test system: CEM cells HIV-1 protection, formazan growth assay
Assay: NCI AIDS Antiviral Assay
Conditions: for IC50: measured here: growth of uninfected CEM cells
Procedure, shortened: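 Protection of CEM cells against HIV-1 was scored from cell growth (soluble formazan) across five concentrations, with parallel uninfected cells. Lack of protection may reflect toxicity.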

Compound	EC50	IC50	outcome
C[C@@]1(C(=O)O)CCC[C@@]2(C)C1[C@H](OC(=O)c1ccccc1)CC1CC3CC12CC[C@@]3(C)O (some centres undefined)	> 282 µM	58.9 µM	
Cc1cn(C2CC(Br)C(COC(c3ccccc3)(c3ccccc3)c3ccccc3)O2)c(=O)[nH]c1=O (centres undefined)	> 200 µM	13.8 µM	
Cc1ccc(C2C(Cl)C(=O)N2n2cnc3ccccc3c2=O)cc1 (centres undefined)	> 39.8 µM	> 39.8 µM	
CCOC(=O)c1c(C(F)(F)F)c2cc(C(=O)C(F)(F)F)c3ccccc3c2n1C	> 42.7 µM	> 42.7 µM	
COc1cc(C2C(Cl)C(=O)N2NC(=O)c2ccc(N)cc2)cc(Br)c1O (centres undefined)	> 200 µM	13.2 µM	
COCCNc1cncc(C(N)=O)c1	> 200 µM	> 200 µM	
C=C(CO)[C@H]1Oc2ccc(C(C)=O)cc2[C@@H]1O	> 200 µM	> 200 µM	
CC(=C/c1ccccc1)/C=C1/SC(=S)N(C=C2C(=O)NC(=O)NC2=O)C1=O	> 200 µM	60.3 µM	
Cc1cc(Cl)ccc1NC(=O)C(=O)Cc1nc2ccccc2o1	> 11.5 µM	> 11.5 µM	
CCCCC1OC2O[C@]3(C)CCC4C(C)CCC([C@H]1C)C24OO3 (some centres undefined)	> 95.5 µM	22.4 µM	
O=CC1CCCc2ccccc21 (centres undefined)	> 44.7 µM	> 44.7 µM	
NC(=O)SCC(=O)Nc1ccc2cccc3c2c1CC3			inactive
CN(C)CC(=O)C1C(=O)N(C)c2ccccc21 (centres undefined)	> 200 µM	> 200 µM	
NC(CCCCP(=O)(O)O)C(=O)O (centres undefined)	> 200 µM	> 200 µM	
O=C(O)c1cc(CC2Cc3cc4c(cc3C2=O)CCC4)cc2c1CCC2 (centres undefined)	> 200 µM	53.7 µM	
CC(=O)/C(=C\c1cccc([N+](=O)[O-])c1)C(=O)Nc1ccccc1C	> 22.4 µM	> 22.4 µM	
COc1cc2cc(OC)c3cc4c(cc3c2c(OC)c1OC)OCO4	> 39.8 µM	> 39.8 µM	
OCc1cc2c(cn1)[nH]c1ccc(NCc3ccccc3)cc12			inactive
COc1cc(/C=C(\C#N)c2ccc([N+](=O)[O-])cc2)ccc1O	> 151 µM	27.5 µM	
O=c1[nH]c2ccc(CC(=S)N3CCOCC3)cc2s1	> 200 µM	> 200 µM	
O=c1c2cc([N+](=O)[O-])cnc2sn1-c1ccc(Oc2ccccc2)cc1	37.2 µM	43.7 µM	
CCN(CC)CCOc1ccc(/C=C(\C#N)c2ccc(OCCN(CC)CC)cc2)cc1	> 53.7 µM	3.72 µM and 6.92 µM	
CC1Cn2c(=S)[nH]c3cccc(c32)NC1=O (centres undefined)	> 200 µM	> 200 µM	

Compound	EC50	IC50	outcome
Cc1ccc(S(=O)(=O)N2CCc3cc(O)c([N+](=O)[O-])cc32)cc1	> 200 µM	> 200 µM	
CCOC(=O)[C@@H]1[C@@H](c2ccccc2)N(C)O[C@@]1(c1ccccc1)C(F)(F)F	> 200 µM	47.9 µM	
COc1cc2cc[n+]3c(C)c4cc(OC)c(OC)cc4c([O-])c3c2cc1OC	> 200 µM	123 µM	
O=[N+]([O-])CC1CCCCC1O (centres undefined)	> 200 µM	115 µM	
CCCCCC(=O)OC1(C(C)=O)CCC2C3CCC4=CC(=O)CCC4C3CCC21C (centres undefined)	> 200 µM	14.5 µM	
Cc1ccc(-c2c(C#N)c(O)n(NS(=O)(=O)c3ccccc3)c(=O)c2C#N)cc1	> 200 µM	> 200 µM	
CCOC(=O)/C=C/c1ccc(C#N)cc1			inactive
Cc1ccc(-c2c(C#N)c(-c3ccccc3)c(C#N)c(=O)n2NS(=O)(=O)c2ccccc2)cc1	> 200 µM	69.2 µM	
O=C1/C(=C/c2cccc(Br)c2)CCc2ccccc21	> 200 µM	7.24 µM	
Cn1cnc(N2CCCC2)c(C#N)c1=O	> 200 µM	> 200 µM	
Cc1ccc(N=C(SSC(Cl)(Cl)Cl)SSC(Cl)(Cl)Cl)cc1			inactive
Cc1ccc(N=Nc2c(N)nn3cc4c(nc23)CCC4)cc1	> 200 µM	> 200 µM	
CN(C)C(=O)C(NCCO)c1ccccc1 (centres undefined)	> 200 µM	74.1 µM	
C1CC(C2OCOC3COCOC32)OO1 (centres undefined)	> 200 µM	> 200 µM	
O=C1/C(=C/c2ccccc2Cl)CCc2ccccc21	> 10 µM	> 10 µM	
O=C1CCC(=O)N1n1c(Cc2ccc(Cl)cc2)n[nH]c1=O	> 200 µM	> 200 µM	
CCC[CH2][Sn]([CH2]CCC)([O]C(=O)C(OC(C)=O)c1ccccc1)[O]C(=O)C(OC(C)=O)c1ccccc1 (centres undefined)	> 11.5 µM	0.191 µM	
Cc1c(C(=O)O)[nH]c(=O)[nH]c1=O	> 200 µM	> 200 µM	
CCCO/S(=N\S(=O)(=O)c1ccccc1)c1ccccc1[N+](=O)[O-] (centres undefined)	> 676 µM	> 676 µM	
CCCN=Cc1c(O)c(O)c(C(C)C)c2cc(C)c(-c3c(C)cc4c(C(C)C)c(O)c(O)c(C=NCCC)c4c3O)c(O)c12	> 6.31 µM	1.15 µM	
CCC1(C)C(C#N)(C#N)C1(C#N)C#N	> 200 µM	1.29 µM	
CC1CC2C3CCC4=CC(=O)C=CC4(C)C3(F)C(O)CC2(C)C1(O)C(=O)COP(=O)(O)O (centres undefined)			inactive
O=S(=O)(O)c1cc(N=Nc2ccc(/C=C/c3ccc(N=Nc4cc(S(=O)(=O)O)c5cccnc5c4O)cc3S(=O)(=O)O)c(S(=O)(=O)O)c2)ccc1/C=C/c1ccc(N=Nc2cc(S(=O)(=O)O)c3cccnc3c2O)cc1S(=O)(=O)O	0.832 µM	1.95 µM	

Compound	EC50	IC50	outcome
COc1cc2c(cc1O)-c1oncc1CCC2	> 77.6 µM	> 77.6 µM	
Cc1nn(C2OC(CO)C(O)C(F)C2O)c(=O)[nH]c1=O (centres undefined)	> 200 µM	> 200 µM	
CC(C)c1ccc(/C=C2\C=Cc3ccccc32)cc1	> 40.7 µM	> 40.7 µM	
c1ccc(-c2ccc(-c3cc4ccccc4[nH]3)cc2)cc1	> 200 µM	> 200 µM	
Cc1nc2n[nH]c(N)c2nc1C	> 83.2 µM	> 83.2 µM	
Nc1ncc2ncn(C3CCC(CO)O3)c2n1 (centres undefined)	> 200 µM	> 200 µM	
COc1ccc(C2c3cn[nH]c3CC3CCCCC32)cc1 (centres undefined)	> 200 µM	34.7 µM	
COc1ccc(COC(=O)NNC(=O)C2CSC(c3ccccc3)N2C(C)=O)cc1 (centres undefined)	> 200 µM	174 µM	
CN(C)C1COC2Cc3ccccc3C1O2 (centres undefined)	> 200 µM	> 200 µM	
CC(=O)NC1CCC(NC(=O)OC(C)(C)C)C(NC(=O)OC(C)(C)C)C1 (centres undefined)	> 200 µM	> 200 µM	
O=C(O)c1cccc(/C=C/c2ccc(N=Nc3cc(S(=O)(=O)O)c4cccnc4c3O)cc2C(=O)O)c1	166 µM	> 200 µM	
O=C(N/N=C/C=C/c1ccccc1)c1ccncc1	> 200 µM	33.1 µM	
CC1(C)OC(=O)C(C)(C)C(=O)O1			inactive
CC(C)Sc1nc(C#N)cc2c1CCCC2	> 200 µM	57.5 µM	
COc1ccccc1NC(=S)/N=C/c1c(O)[nH]c(=O)[nH]c1=O	> 200 µM	> 200 µM	
COc1cc(Nc2cnc3cc(F)c(F)cc3n2)cc(OC)c1	> 200 µM	> 200 µM	
CN(C)C1=CC(=O)C(=O)c2ccncc21			inactive
CCOC(=O)c1nc2ccc(C(F)(F)F)cc2nc1Oc1ccc(C#N)cc1	> 200 µM	> 200 µM	
COc1cc(/C=C2\CC(C)C/C(=C\c3ccc(O)c(OC)c3)C2=O)ccc1O (centres undefined)	> 200 µM	3.39 µM	
CC(=O)n1c2c(c(=O)n1-c1ccccc1)S(=O)CCC2 (centres undefined)	> 123 µM	89.1 µM	
CCOc1ccc(NC(=O)/C(CC(=O)c2c[n+](=O)c3ccccc3n2[O-])=N\OCCCc2ccccc2)cc1	> 123 µM	> 123 µM	
CCCCCCCCCC(=O)CC(=O)c1c(O)cc(O)cc1O	> 200 µM	26.3 µM	
CSCCC(N)P(C)(=O)O (centres undefined)	> 200 µM	> 200 µM	

Compound	EC50	IC50	outcome
CCCCCCCCCCCCCCCCN1c2ccccc2C(C)(C)C12C=Cc1cccc([N+](=O)[O-])c1O2 (centres undefined)	> 200 µM	> 200 µM	
O=C1C(Cl)N(c2ccccc2Cl)C1c1c[nH]c2ccccc12 (centres undefined)	> 398 µM	> 200 µM	
CC(C)=CC[C@]12CCN[C@H]1N(S(=O)(=O)c1ccccc1)c1ccccc12	> 200 µM	30.9 µM	
COC(=O)C1(C(=O)OC)CC2=C(S(=O)(=O)c3ccccc3)C[C@H](C#N)[C@H]2C1	> 200 µM	58.9 µM	
[N-]=[N+]=CC(=O)OC1Cc2ccccc2C1	182 µM	> 200 µM	
O=C(Cn1c(=O)oc2ccccc21)N(c1ccccc1)c1ccccc1	> 200 µM	> 200 µM	
Nc1nc(NCC2(CO)CC(CCc3ccccc3)C2)cc(=O)[nH]1 (centres undefined)	> 200 µM	64.6 µM	
O=[N+]([O-])c1ccc2c(c1)c1nn2CCCCOc2nn(c3ccc([N+](=O)[O-])cc23)CCCCO1	> 200 µM	> 200 µM	
CC(=O)N(C(C)=O)c1c(C)cc(-c2ccccc2)oc1=O	> 200 µM	> 200 µM	
COc1ccc2cc1Oc1ccc(cc1)C[C@@H]1c3cc(c(OC)cc3CCN1C)Oc1c(OC)c(OC)cc3c1[C@@H](C2)N(C)CC3			inactive
COc1ccc2nc3cccc([N+](=O)[O-])c3c(NCCO)c2c1	> 2 µM	0.0309 µM	
N#CC(NNC(=O)c1ccccc1O)c1cccc(O)c1 (centres undefined)	> 6.31 µM	0.562 µM	
Cn1cc([N+](=O)[O-])cc1C(=O)Nc1cc(C(=O)Nc2ccc(S(=O)(=O)O)c3cc(S(=O)(=O)O)ccc23)n(C)c1	> 398 µM	178 µM	
Cn1c(=O)c2sc3c4sc5c(=O)n(C)c6ccccc6c5c4sc3c2c2ccccc21	> 200 µM	> 200 µM	
O=[N+]([O-])c1ccc2nc3n(c2c1)C(c1c(F)cccc1F)SC3 (centres undefined)	> 200 µM	> 200 µM	
CCCCCCOc1ccc(C(=N)N(CCCC)CCCC)c2ccccc12	> 200 µM	3.39 µM	
COc1ccc(Nc2nc3c(N)cc(C(F)(F)F)cc3nc2-c2ccccc2)cc1OC	> 16.2 µM	> 16.2 µM	
COc1cc(O)c2cc1Oc1ccc(cc1)CC1=NCCc3cc(OC)c(cc31)Oc1c(OC)c(OC)c(OC)c3c1[C@H](C2)N(C)CC3			inactive
Cc1cn(C2CCC(/C=N\O)O2)c(=O)[nH]c1=O (centres undefined)	> 200 µM	> 200 µM	
CCOC(=O)/C(=C\c1ccc(OC)cc1)C(C)=O	> 275 µM	117 µM	
